This is an account of results in ChEMBL document CHEMBL5442168, “ASAP - In vitro liver microsomal stability” (2024).

Series [1] is described as follows: Mouse liver microsomal stability of compound in microsomal protein, PBS buffer pH 7.4, NADPH, glucose-6-phosphate and glucose-6-phosphate dehydrogenase media. Aliquotes were taken at 5 time points and after stopping the reaction, supernatants were analyzed using HPLC coupled with a tandem mass spectrometer. The elimination constant, half-life, and intrinsic clearance are determined as results using linear regression analysis. The assay has been performed by Enamine biological services, Bienta Ltd.The protocol is publicly available: dx.doi.org/10.17504/protocols.io.5qpvokdb9l4o/v1. In kind it is ADME, microsomes, Microsome. The settings on record: for half-life / microsomal CLint: liver microsomes.

Series [2] can be described thus: Human liver microsomal stability of compound in microsomal protein, PBS buffer pH 7.4, NADPH, glucose-6-phosphate and glucose-6-phosphate dehydrogenase media. Aliquotes were taken at 5 time points and after stopping the reaction, supernatants were analyzed using HPLC coupled with a tandem mass spectrometer. The elimination constant, half-life, and intrinsic clearance are determined as results using linear regression analysis. The assay has been performed by Enamine biological services, Bienta Ltd.The protocol is publicly available: dx.doi.org/10.17504/protocols.io.5qpvokdb9l4o/v1. In kind it is ADME, microsomes, Microsome. The settings on record: for half-life / microsomal CLint: liver microsomes; for Remaining / Remaining (without cofactor): microsomes. On the technique in general: Microsomes from liver hold many membrane-bound enzymes, among them those of drug oxidation.

Molecules are shown by their SMILES. Values joined by “and” are separate entries in the source; they are usually repeats but may differ in a detail not shown here. Identical values can stand only once.
Throughout, for Remaining (without cofactor): time not given here.
Throughout, for Remaining: time not given here.

With `O=C(Nc1ccccc1)Nc1ccc(C(=O)NC2c3cccc(O)c3CC2C(=O)O)cc1` (centres undefined), in series [1], the half-life was determined as 1070 min and the microsomal CLint came out at 2 µL/min/mg. Moreover, in series [1] (microsomes), the Remaining worked out at 111% and the “Remaining (without cofactor)” value is listed as 99%. In addition, in series [2], the half-life came to 187 min, the microsomal CLint is 9 µL/min/mg, the Remaining worked out at 123% and the “Remaining (without cofactor)” value came to 96%.
In series [1], `COc1ccc([C@@H](Cc2nnn[nH]2)NC(=O)c2ncnc3[nH]ccc23)cc1` came in with a half-life of 4400 min. In addition, in series [1] (microsomes), the Remaining was 96% and the “Remaining (without cofactor)” value was determined as 93%. In series [2], the half-life was determined as 314 min, the microsomal CLint came out at 5 µL/min/mg, the Remaining worked out at 86% and the “Remaining (without cofactor)” value amounted to 110%.
In series [1], `Cc1nn(C)cc1-c1cc2c(N[C@@H](c3ccc4c(c3)S(=O)(=O)CCC4)C(C)C)ncnc2[nH]1` registered a half-life of 4.3 min and a microsomal CLint of 390 µL/min/mg. Moreover, in series [1] (microsomes), the Remaining amounted to 1% and the “Remaining (without cofactor)” value came out at 103%. Moreover, in series [2], the half-life stood at 6.6 min, the microsomal CLint is 251 µL/min/mg, the Remaining is reported as 2% and the “Remaining (without cofactor)” value is 116%.
As to `CC(C)[C@H](Nc1ncnc2[nH]ccc12)c1ccc2c(c1)S(=O)(=O)CCC2`, in series [1], the half-life is 8.1 min and the microsomal CLint was found to be 207 µL/min/mg. In series [1] (microsomes), the Remaining is on record as 3% and the “Remaining (without cofactor)” value is 104%. For the same compound, in series [2], the half-life was 29.5 min, the microsomal CLint came to 57 µL/min/mg, the Remaining was 37% and the “Remaining (without cofactor)” value is on record as 92%.
In series [1], `Cn1ncc(-c2cc3c(N[C@@H](c4ccc5c(n4)OCCO5)C(C)(C)C)ncnc3[nH]2)c1C#N` returned a half-life of 8 min and a microsomal CLint of 209 µL/min/mg. In series [1] (microsomes), the CLint was 188 µL/min/mg and 226 µL/min/mg; the Remaining is 4% and 5% and 2%; the “Remaining (without cofactor)” value is 101% and 106% and 94%; the T1/2 was 8.9 min and 7.4 min. Moreover, the “Remaining (without cofactor)” value in series [2] was 91% and 108% and 85%.
Regarding `CC(C)[C@H](Nc1ncnc2[nH]c(-c3cnn(C)c3C#N)cc12)c1ccc2c(n1)NC(=O)CO2`, in series [1], the half-life was found to be 12.8 min and the microsomal CLint was determined as 131 µL/min/mg. In addition, in series [1] (microsomes), the Remaining was determined as 12% and the “Remaining (without cofactor)” value is on record as 85%. For the same compound, in series [2], the half-life was determined as 12.2 min, the microsomal CLint worked out at 137 µL/min/mg, the Remaining is reported as 10% and the “Remaining (without cofactor)” value is on record as 92%.
On to `CNC(=O)Cn1cc(-c2cc3c(N[C@@H](c4ccc5c(c4)OCCO5)C(C)C)ncnc3[nH]2)cn1`, for which, in series [1], the half-life turned out to be 35.7 min and the intrinsic clearance (microsomal CLint) is 47 µL/min/mg. Further, in series [1] (microsomes), the Remaining was 46% and the “Remaining (without cofactor)” value is given as 90%. Further, in series [2], the half-life is 14 min, the microsomal CLint worked out at 119 µL/min/mg, the Remaining was found to be 14% and the “Remaining (without cofactor)” value came to 92%.

By half-life is commonly meant the time in which the quantity being followed falls by half. For orientation: microsomal CLint means a measure of how fast metabolising enzymes remove a compound, apart from limits set by blood flow. Low values mean slow turnover, high ones rapid turnover.
